Measurements reported in article PMC11284789, “Biomimetic Analogues of the Desferrioxamine E Siderophore for PET Imaging of Invasive Aspergillosis: Targeting Properties and Species Specificity” (Journal of Medicinal Chemistry, 2024).
Read-outs that look alike come from different tables or passages of the source.

Experiments:
[1] = cited from earlier work
[2] = tested on: A. fumigatus mutant strain ΔsidAΔftrA; assay: Growth promotion assay (siderophore utilization), ΔsidAΔftrA; type: cell-based, Aspergillus fumigatus; conditions: siderophores in ferri-form, 0.1, 1.0, 10 and 50 μM; 48 h at 37 °C
Experimental: (§1) In order to investigate whether A. fumigatus is able to utilize the artificial FOX analogues in the iron form as an iron source, growth promotion assays were performed (Figure 2) using two A. fumigatus mutants. The mutant strain ΔsidAΔftrA is able to grow only in the presence of utilizable siderophores or ferrous iron concentration >3 mM.[10],[44] The second mutant, ΔsidAΔftrAΔsit1, additionally lacks the siderophore transporter Sit1, which exclusively mediates the uptake of ferrioxamine-type siderophores and is additionally involved in the uptake of ferrichrome-type and coprogen-type siderophores but not of FsC or TAFC.[19],[20] For growth promotion analysis, the mutants were spotted on iron-lacking media supplemented with different concentrations of siderophores. Control experiments confirmed the expected growth pattern: growth of ΔsidAΔftrA but not of ΔsidAΔftrAΔsit1 was promoted by supplementation with ferric FOXE; both mutant strains were able to grow in the presence of TAFC as uptake of this siderophore depends on MirB but not on Sit1; both mutant strains lacked growth without siderophore supplementation, and uninoculated media also lacked fungal growth. […] The utilization of iron from all artificial ferrioxamine analogues was mediated by Sit1 like that of natural ferrioxamine-type siderophores.[20]
Figure 2 Growth promotion analysis of FOX analogues. 10^4 conidia of A. fumigatus mutant strains ΔsidAΔftrA (A) and ΔsidAΔftrAΔsit1 (B) were point-inoculated for every condition. All natural and artificial siderophores were tested in the ferri-form in the concentrations 0.1, 1.0, 10, and 50 μM. As controls, TAFC, which is taken up in a Sit1-independent manner, and FOXE were included. Moreover, controls without siderophore supplementation with (+) or without (−) inoculation of conidia were included. Greenish coloration of the fungal colonies indicates asexual sporulation. Pictures were taken after 48 h of incubation at 37 °C. […]

[3] = design: method as in earlier work; conditions: cited from earlier work; for logβ Ga(III)L: T = 25 °C, I = 0.1 M NaClO4, M:L 1:1; for pGa(III): calculated for [L] = 1 × 10−4 [M] = 1 × 10−5 at pH 7.4
[4] = tested on: iron-starved (Fe(−)) A. fumigatus cultures; assay: Short-term in vitro uptake of 68Ga-labeled siderophores; type: cell-based, Aspergillus fumigatus; conditions: paired t test, p < 0.01
Experimental: To investigate the short-term active transport of ^68Ga-labeled FOXE analogues by A. fumigatus, iron-starved (Fe(−)) cultures were used (Figure 3). As a control, the same cultures were incubated with Fe(III)-FOXE beforehand to saturate and therefore block Sit1-mediated activity. A decrease in uptake upon Fe(III)-FOXE blocking underlines specific uptake by the same transporters recognizing FOXE.
Figure 3 Uptake of ^68Ga-labeled FOXE analogues by Fe(III)-FOXE-blocked and -unblocked iron-starved (Fe(−)) A. fumigatus cultures after 45 min of incubation. * indicates significant difference of blocking compared with nonblocking (mean of three independent experiments, paired t test, p < 0.01).
Uptake assays were performed in both iron-deficient and iron-sufficient A. fumigatus cultures as described previously.[55] The uptake of each [^68Ga]Ga(III)-FOXE derivative was expressed as the ratio to [^68Ga]Ga(III)-FOXE uptake from the same experiment in order to normalize uptake variations between different fungal cultures. The mean values of three different assays were used to quantitatively compare the difference in uptake between the compounds.

S. aureus cultures = tested on: S. aureus cultures; design: method as in PMID 34783539; conditions: 68Ga-labeled, iron-deficient cultures; cited from earlier work
[5] = tested on: A. fumigatus mutant strain ΔsidAΔftrAΔsit1; assay: Growth promotion assay (siderophore utilization), Sit1-lacking ΔsidAΔftrAΔsit1; type: cell-based, Aspergillus fumigatus; conditions: siderophores in ferri-form, 0.1, 1.0, 10 and 50 μM; 48 h at 37 °C
Experimental: as §1
Figure 2 Growth promotion analysis of FOX analogues. […]

## O=C1CCN(O)C(=O)CCNC(=O)CCN(O)C(=O)CCNC(=O)CCN(O)C(=O)CCN1 [FOX 2–2]
[1]; T = 25 °C, I = 0.1 M NaClO4, M:L 1:1
  logβ Fe(III)L: 25.92(8)
[1]; calculated for [L] = 1 × 10−4 [M] = 1 × 10−5 at pH 7.4
  pFe(III): 21.5
[2]
  growth promotion of ΔsidAΔftrA: very limited growth promotion only at the highest tested concentration of 50 μM
[3]
  logβ Ga(III)L: 26.44(5)
  pGa(III): 21.4
[4]
  difference between Fe(III)-FOXE-blocked and -unblocked uptake: statistically insignificant

## O=C1CCC(=O)N(O)CCCCCNC(=O)CCC(=O)N(O)CCCCCNC(=O)CCC(=O)N(O)CCCCCN1 [FOXE, ferrioxamine E]
S. aureus cultures
  uptake (radioactivity level) in S. aureus cultures: high radioactivity levels
[1]; ref Reference2
  logβ Fe(III)L: 32.21(4)
[2]
  growth promotion of ΔsidAΔftrA: promoted
[3]
  logβ Ga(III)L: 29.79(1)
  pGa(III): 25.2
[5]
  growth of ΔsidAΔftrAΔsit1 (Sit1 dependence): not

## triacetylfusarinine C [TAFC]
[2]
  growth promotion of ΔsidAΔftrA: able to grow
[5]
  growth of ΔsidAΔftrAΔsit1 (Sit1 dependence): able to grow
